Results reported in ChEMBL document CHEMBL1201862, “PubChem BioAssay data set” (2004).
Active and inactive are the calls of the source.

What was measured:
Coagulation factor XII = target: T1, Coagulation factor XII (Homo sapiens, UniProt P00748); format: functional;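 further: activated factor XIIa alpha cleaving a fluorogenic AMC peptide substrate; inhibitor potency from loss of enzyme activity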
T1 sequence (P00748 whole entry): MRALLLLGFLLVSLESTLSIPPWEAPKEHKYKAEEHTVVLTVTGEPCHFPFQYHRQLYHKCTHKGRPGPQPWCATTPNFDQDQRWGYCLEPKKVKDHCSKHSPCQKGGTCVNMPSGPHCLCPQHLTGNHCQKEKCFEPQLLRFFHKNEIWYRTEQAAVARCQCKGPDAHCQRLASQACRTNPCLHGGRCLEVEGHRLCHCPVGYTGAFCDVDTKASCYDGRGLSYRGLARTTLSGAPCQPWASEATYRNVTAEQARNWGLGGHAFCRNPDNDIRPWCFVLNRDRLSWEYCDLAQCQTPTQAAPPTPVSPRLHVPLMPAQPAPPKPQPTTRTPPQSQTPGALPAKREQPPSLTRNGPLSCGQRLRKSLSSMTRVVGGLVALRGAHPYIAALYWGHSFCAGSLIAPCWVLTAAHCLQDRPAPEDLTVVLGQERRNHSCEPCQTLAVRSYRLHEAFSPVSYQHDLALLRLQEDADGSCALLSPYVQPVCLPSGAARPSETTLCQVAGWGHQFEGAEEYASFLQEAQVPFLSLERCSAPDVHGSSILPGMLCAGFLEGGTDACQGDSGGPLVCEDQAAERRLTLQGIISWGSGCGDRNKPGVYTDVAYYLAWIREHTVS

[1] = target: T2, High affinity choline transporter 1 (Homo sapiens, UniProt Q9GZV3); test: human choline transporter blockers, potency – cell-based, 5-point CRC, membrane potential dye, dose response (AID 504840); format: functional
T2 sequence (Q9GZV3 whole entry): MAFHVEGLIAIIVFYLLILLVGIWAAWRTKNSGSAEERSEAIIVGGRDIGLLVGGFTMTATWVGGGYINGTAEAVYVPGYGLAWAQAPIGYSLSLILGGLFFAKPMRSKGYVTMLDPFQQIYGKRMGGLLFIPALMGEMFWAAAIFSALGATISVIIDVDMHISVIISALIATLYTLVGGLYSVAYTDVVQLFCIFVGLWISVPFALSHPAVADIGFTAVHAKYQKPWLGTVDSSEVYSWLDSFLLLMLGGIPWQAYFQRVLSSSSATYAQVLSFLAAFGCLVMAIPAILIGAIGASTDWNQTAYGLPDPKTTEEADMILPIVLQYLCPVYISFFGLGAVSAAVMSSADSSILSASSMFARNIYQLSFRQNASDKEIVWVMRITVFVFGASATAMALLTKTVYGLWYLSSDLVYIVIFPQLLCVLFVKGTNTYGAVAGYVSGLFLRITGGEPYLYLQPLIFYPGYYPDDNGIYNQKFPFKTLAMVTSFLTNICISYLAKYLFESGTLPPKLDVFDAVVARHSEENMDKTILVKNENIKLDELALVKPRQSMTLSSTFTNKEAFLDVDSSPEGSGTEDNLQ

[2] = viability loss in THP-1 monocytes – THP-1 cells, cytotoxicity control for Vif-APOBEC3G degradation inhibitor project, dose response (AID 1117359); format: functional; settings: THP-1
[3] = target: T3, Alkaline phosphatase, tissue-nonspecific isozyme (Homo sapiens, UniProt P05186); test: potency against alkaline phosphatase TNAP – biochemical, luminescent, dose response, SAR follow-up (AID 1056)
T3 sequence (P05186 whole entry): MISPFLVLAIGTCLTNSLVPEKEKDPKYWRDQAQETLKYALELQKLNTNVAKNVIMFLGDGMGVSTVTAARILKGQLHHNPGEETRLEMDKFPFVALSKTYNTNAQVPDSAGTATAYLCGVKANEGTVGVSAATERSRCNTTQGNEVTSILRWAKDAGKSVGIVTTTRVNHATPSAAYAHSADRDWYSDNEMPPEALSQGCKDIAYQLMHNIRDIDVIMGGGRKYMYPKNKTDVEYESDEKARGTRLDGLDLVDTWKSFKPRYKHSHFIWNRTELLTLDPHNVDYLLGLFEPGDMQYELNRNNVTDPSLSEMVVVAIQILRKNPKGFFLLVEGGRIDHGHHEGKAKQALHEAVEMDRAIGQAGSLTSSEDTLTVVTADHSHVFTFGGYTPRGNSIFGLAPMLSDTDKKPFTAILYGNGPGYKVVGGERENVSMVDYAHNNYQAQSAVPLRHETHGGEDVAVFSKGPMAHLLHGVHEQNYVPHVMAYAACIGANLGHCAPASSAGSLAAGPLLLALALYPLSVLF

[4] = target: Glyceraldehyde-3-phosphate dehydrogenase (Homo sapiens, UniProt P04406)
[5] = viability of PTEN-deleted HCT116 cells – cell-based, HCT116 PTEN knockout, dose response (AID 1047); format: functional;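 further: HCT116 colon tumor cells with PTEN knocked out; cells exposed to compound for 60 hours before readout; potency for loss of cell viability measured by luminescence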
[6] = viability of HCT116 lacking mutant beta-catenin – cell-based, human colon tumor, dose response (AID 1045); format: functional;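 further: HCT116 colon tumor cells with beta catenin knocked out; cells exposed to compound for 60 hours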
[7] = growth inhibition of yeast DHODH-expressing 3D7 parasites – SYBR Green, dry powder samples, dose response (AID 1159570); format: functional, cell-based;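 further: parasite growth measured after 72 hours of compound exposure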
[8] = Dd2 malaria parasite growth inhibition potency – SYBR Green, dry powder samples, dose response (AID 1159566); format: functional, cell-based;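 further: potency for growth inhibition with lower SYBR green DNA signal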
[9] = P. falciparum Dd2 growth inhibitors, dose response, SYBR Green, cherry-picked samples (AID 1159567); format: functional, cell-based
[10] = growth inhibition of PfATP4-mutant resistant parasites – NITD609-resistant line, SYBR Green, dry powder, dose response (AID 1159571); format: functional, cell-based;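 further: parasites synchronized at ring stage by sorbitol before testing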

Sequence of Glyceraldehyde-3-phosphate dehydrogenase (P04406 whole entry): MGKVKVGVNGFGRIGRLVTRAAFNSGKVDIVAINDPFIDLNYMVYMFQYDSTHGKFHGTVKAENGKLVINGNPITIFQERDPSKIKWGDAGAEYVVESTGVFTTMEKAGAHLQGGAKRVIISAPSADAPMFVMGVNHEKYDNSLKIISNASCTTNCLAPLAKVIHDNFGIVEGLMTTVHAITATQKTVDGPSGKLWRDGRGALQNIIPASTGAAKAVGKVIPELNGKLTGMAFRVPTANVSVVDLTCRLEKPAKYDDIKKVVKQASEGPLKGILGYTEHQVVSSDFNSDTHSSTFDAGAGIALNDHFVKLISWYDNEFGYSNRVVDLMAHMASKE

Structure (SMILES): Cc1ccc(S(=O)(=O)N2CCN(Cc3cc(C(C)C)ccc3O)CC2)cc1
- IC50 (Coagulation factor XII): > 50 µM (inactive)

Structure (SMILES): CCN(CC)CCC(c1ccc2c(c1)OCO2)c1c(OC)cc(OC)c2c(-c3ccccc3)cc(=O)oc12 (stereo unspecified)
- IC50 [1]: 18.2 µM (active)

Structure (SMILES): CC(NC(=O)c1cccc(S(=O)(=O)N2CCN(C)CC2)c1)C1CC2CCC1C2 (stereo unspecified)
- IC50 [1]: 13.2 µM (active)

Structure (SMILES): NNC(=O)CN1C(=O)CN=C(c2ccccc2)c2cc(Br)ccc21
- IC50 (Coagulation factor XII): > 50 µM (inactive)

Structure (SMILES): COc1ccc(-c2csc3ncnc(N4CCN(CCO)CC4)c23)cc1
- IC50 [1]: 13.8 µM (active)

Structure (SMILES): COc1ccc(OCCOC(=O)c2cc(S(=O)(=O)N3CCOCC3)c(Cl)cc2Cl)cc1
- CC50 [2]: 23.9 µM (active)

Structure (SMILES): COC(=O)c1ccc(OC)c(S(=O)(=O)Nc2cnc3ccccc3c2)c1
- IC50 [3]: > 10 µM (inactive)
- IC50 [4]: > 10 µM (inconclusive)

Structure (SMILES): CC1CCCCC1N=C(S)Nc1ccc(SC(F)F)cc1 (stereo unspecified)
- IC50 [1]: 7.63 µM (active)
- EC50 [5]: 17.5 µM (active)
- EC50 [6]: 19 µM (active)

Structure (SMILES): O=C(NCCN1CCc2ccccc2C1)C1CC(=O)N(C2CCCC2)C1 (stereo unspecified)
- IC50 (Coagulation factor XII): > 50 µM (inactive)

Structure (SMILES): COc1ccc(NC(=O)N(C)C[C@H]2Oc3c(NC(=O)Nc4ccccc4)cccc3C(=O)N([C@@H](C)CO)C[C@H]2C)cc1
- AC50 [7]: 0.261 µM (active)
- AC50 [8]: 0.167 µM (active)
- AC50 [9]: < 0.3 µM (active)
- AC50 [10]: 0.2 µM (active)

Structure (SMILES): COc1ccc(Br)cc1S(=O)(=O)Nc1ccon1
- IC50 [3]: > 100 µM (inactive)
- IC50 [4]: > 100 µM (not active)

Structure (SMILES): CCOC(=O)Nc1cc(C)c(Cl)cc1OC
- CC50 [2]: > 40 µM (active)

Structure (SMILES): Cc1nnc(NC(=O)c2c(F)c(F)c(F)c(F)c2F)s1
- IC50 (Coagulation factor XII): > 50 µM (inactive)

Structure (SMILES): CN(C)/C=C1\C=C(c2ccccc2)OC1=O
- IC50 (Coagulation factor XII): > 50 µM (inactive)
